What was measured:
MEK1 = MEK1 (Homo sapiens (Human), UniProt Q02750); assay: MEK Inhibition Assay-2 (Z′-LYTE biochemical assay); conditions: Z′-LYTE assay of Example 39; read-out: IC50 against MEK1
Description: MEK1 inhibitory activity of compounds were tested using the following procedure (protocol available at thermofisher.com/content/dam/LifeTech/migration/files/drug-discovery/pdfs.par.60256.file.dat/20130430%20ssbk %20customer %20protocol %20and %20assa y %20conditions.pdf). The Z′-LYTE biochemical assay (ThermoFisher) employs a fluorescence-based, coupled-enzyme format and is based on the differential sensitivity of phosphorylated and non-phosphorylated peptides to proteolytic cleavage.
Test compounds in 100% DMSO were screened in 1% DMSO (final) in the well. For 10 point titrations, 3-fold serial dilutions are conducted from the starting concentration of 30 μM.
After the 1 hour incubation, 5 μL of a 1:1024 dilution of Development Reagent A (available from Invitrogen, catalog no. PV3295) was added.
ATP solutions were diluted to a 4× working concentration in Kinase Buffer (50 mM HEPES pH 7.5, 0.01% BRIJ-35, 10 mM MgCl2, 1 mM EGTA). ATP Km apparent was previously determined using a Z′-LYTE assay. The Development Reagent was diluted in Development Buffer (available from Invitrogen, catalog no. P3127).
Assay Protocol: 2.5 μL of 4× test compound or 100 nL of 100× Test Compound plus 2.4 μL Kinase Buffer, 5 μL of the 2× Peptide/Kinase Mixture, 2.5 μL of 4×ATP Solution were added to the plates and placed on a shake plate for 30-seconds. The kinase reaction was allowed to proceed for 60-minute at room temperature, before 5 μL of Development Reagent Solution was added, and the mixture agitated for 30-seconds on a shake plate. The mixture was incubated for 60-minute at room temperature. Fluorescence was measured using a plate reader and the data were analyzed.
This control yielded 100% cleaved peptide in the Development Reaction. The 100% Phosphorylation Control, which consisted of a synthetically phosphorylated peptide of the same sequence as the peptide substrate, was designed to allow for the calculation of percent phosphorylation. This control yielded a very low percentage of cleaved peptide in the Development Reaction. The 0% Phosphorylation and 100% Phosphorylation Controls allow for the calculation of the percent phosphorylation achieved in a specific reaction well.
The minimum emission ratio in a screen was established by the 0% Inhibition Control, which contained active kinase. This control was designed to produce a 10-50% phosphorylated peptide in the Kinase Reaction. Cascade assays may produce up to 70% phosphorylated peptide.
A known inhibitor control standard curve, 10 point titration, was run for each individual kinase on the same plate as the kinase to ensure the kinase was inhibited within an expected IC50 range previously determined.
The following controls are prepared for each concentration of Test Compound assayed. […] The expected value for a non-interfering compound should be 100%. Any value outside of 90% to 110% was flagged. […] The expected value for a non-fluorescence compound should be 0%. Any value>20% was flagged.
The data in Table A was calculated. XLfit from IDBS was used. The dose response curve was curve fit to model number 205 (sigmoidal dose-response model).
Table 3 lists the MEK1 inhibition assay results of selected compounds according to the above procedure.

[1] = systemic MEK inhibitor; cited from earlier work
HCT116 cells = assay: HCT116 (Kras) GI50 cell-based assay (Cell Titer-Glo); conditions: Homo sapiens, HCT-116, 72 hours, read-out: Assay 3: HCT116 (Kras) GI50
Description: (§1) Alternatively, the following procedure can be used to measure cell-based activity. Test compounds were dissolved in DMSO in 10 mM stock. Cell Titer-Glo® 2.0 Luminescent cell viability assay reagent was purchased from Promega (Madison, Wis.). A375 and HCT116 cell lines were purchased from American Type Culture Collection (Manassas, Va.). For A375 cells, cell culture media was DMEM+10% FBS. For HCT116 cells, cell culture media was McCoy's 5A+10% FBS. All media were supplemented with 100 μg/mL of penicillin, and 100 μg/mL of streptomycin. Cultures were maintained at 37° C. in a humidified atmosphere of 5% CO2 and 95% air.
(§2) Test compounds were diluted in DMSO solution with 10-dose and 3-fold dilutions in a source plate starting at 10 mM. 25 nL of each test compound was delivered from the source plate to each well of the 384-well cell culture plates (T=Final) by Echo 550. 25 μL of culture medium containing 2000 of A375 or HCT116 cells was added to each of the wells in duplicates of the cell culture plates (T=0 and T=Final). 25 μL of Cell Titer Glo 2.0 reagent was added to each well of cell culture plate (T=0). The contents were mixed on an orbital shaker for 2 min and incubated at room temperature for 15 min to stabilize luminescent signal. Luminescence was recorded by Envision 2104 Multilabel Reader (PerkinElmer, Santa Clara, Calif.). The number of viable cells in culture was determined based on quantitation of the ATP present in each culture well. The cells in cell culture plate (T=Final) were incubated with the compounds at 37° C., 5% CO2 for 72 hours. 25 μL of Cell Titer Glo 2.0 reagent was added to each well. The contents were mixed on an orbital shaker for 2 min and incubated at room temperature for 15 min to stabilize luminescent signal. Luminescence was recorded by Envision 2104 Multilabel Reader (PerkinElmer, Santa Clara, Calif.). The number of viable cells in culture was determined based on quantitation of the ATP present in each culture well. The GI50 curves were plotted using the GraphPad Prism 4 program based on a sigmoidal dose-response equation Y=Bottom+(Top-Bottom)/(1+10^((Log EC50−X)*HillSlope)). All parameters in the equation were calculated by GraphPad Prism 4 program. […] Accordingly, GI50 is the value of 10^X, where X was calculated by the Curve Fitting Equation when Y=50 using Excel.
Assay 3 is the HCT116 (Kras) GI50 (nM) assay as described in Example 41.

[2] = Liver S9 half-life stability assay; assay type: in vitro ADME; conditions: human, liver S9 fraction, pH 7.4; 1 μM test compound, 2 mg/mL liver protein, 1 mM NADPH; read-out: Assay 4: liver S9 half-life
Description: Compounds can be assessed for metabolic stability in human skin by assessing their rate of disappearance from human S9 skin fraction. Similarly, compounds can be assessed for metabolic stability in human liver by assessing their rate of disappearance from human S9 liver fraction. The protocol below is used to assess the difference between skin and hepatic metabolism.
The assay was carried out in 96-well microtiter plates at 37° C. Reaction mixtures (25 μL) contained a final concentration of 1 μM test compound, 2 mg/mL liver or skin protein, and 1 mM NADPH in buffer (100 mM potassium phosphate, pH 7.4 buffer with 1 mM EDTA, 3 mM MgCl2). At each of the time points (0, 15, 30, and 60 minutes), 150 μL of quench solution (100% acetonitrile with 0.1% formic acid) with internal standard was transferred to each well. Besides the zero minute controls, mixtures containing the same components except the NADPH were also prepared as the negative control. Verapamil or testosterone was included as a positive control to verify assay performance. Plates were sealed and centrifuged at 4° C. for 15 minutes at 4000 rpm. The supernatant was transferred to fresh plates for LC/MS/MS analysis.
All samples were analyzed on LC/MS/MS using an AB Sciex API 4000 instrument, coupled to a Shimadzu LC-20AD LC Pump system. Analytical samples were separated using a Waters Atlantis T3 dC18 reverse phase HPLC column (20 mm×2.1 mm) at a flow rate of 0.5 mL/min. The mobile phase consisted of 0.1% formic acid in water (solvent A) and 0.1% formic acid in 100% acetonitrile (solvent B).
The extent of metabolism was calculated as the disappearance of the test compound, compared to the 0-min control reaction incubations. Initial rates were calculated for the compound concentration and used to determine t1/2 values and subsequently, the intrinsic clearance, CLint=(0.693) (1/t1/2 (min)) (mL incubation/mg of S9 protein).
Assay 4 is the liver S9 half-life stability assay as described in Example 42. A4 indicates a half life of greater than 50 min and less than or equal to 200 min and B4 indicates a half life of less than or equal to 50 minutes.

A375 cells = assay: A375 (BRAF) GI50 cell-based assay (Cell Titer-Glo); conditions: Homo sapiens, A-375, 72 hours, read-out: Assay 2: A375 (BRAF) GI50
Description: as §1, §2
Assay 2 is the A375 (BRAF) GI50 (nM) cell-based assay as described in Example 41.

MEK1, sequence (Q02750 whole entry): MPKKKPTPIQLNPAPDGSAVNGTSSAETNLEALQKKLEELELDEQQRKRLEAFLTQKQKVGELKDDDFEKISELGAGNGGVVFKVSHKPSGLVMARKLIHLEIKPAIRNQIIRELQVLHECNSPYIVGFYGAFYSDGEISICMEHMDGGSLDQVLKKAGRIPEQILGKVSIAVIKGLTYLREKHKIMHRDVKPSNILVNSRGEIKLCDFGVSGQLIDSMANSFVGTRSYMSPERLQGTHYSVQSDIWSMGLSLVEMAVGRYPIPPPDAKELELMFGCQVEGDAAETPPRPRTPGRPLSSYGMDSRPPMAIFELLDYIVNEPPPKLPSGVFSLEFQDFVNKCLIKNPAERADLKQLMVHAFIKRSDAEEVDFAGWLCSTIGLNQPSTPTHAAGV

SMILES | IC50 (MEK1) | half-life at 1 μM [2] | further results
N#Cc1ccc(C(=O)NC2CC2)c(Nc2ccc(I)cc2F)c1 [Compound 1.005] | > 1500 nM |  | 
O=C(NOC[C@H](O)CO)c1ccc(F)c(F)c1Nc1ccc(I)cc1F [PD0325901] |  |  | side effects in clinical trials [1]: neurological side effects associated with ataxia, confusion, and syncope
CCCONC(=O)c1ccc(C#N)cc1Nc1ccc(I)cc1F [Compound 1.009] |  | ≤ 50 min | 

The next lines start with results.

IC50 (MEK1) | half-life at 1 μM [2] | SMILES | further results
≤ 150 nM |  | N#Cc1ccc(C(=O)NO)c(Nc2ccc(I)cc2F)c1 [Compound 1.017, 4-Cyano-2-((2-fluoro-4-iodophenyl)amino)-N-hydroxybenzamide] | 
> 1500 nM |  | COC(=O)CCONC(=O)c1ccc(C#N)cc1Nc1ccc(I)cc1F [Compound 1.022, Methyl 3-((4-cyano-2-((2-fluoro-4-iodophenyl)amino)benzamido)oxy) propanoate] | 
 | ≤ 50 min | CCONC(=O)c1ccc(C#N)cc1Nc1ccc(I)cc1F [Compound 1.008] | GI50 (HCT116 cells): 750 to 2000 nM; GI50 (A375 cells): 500 to 1500 nM
 | ≤ 50 min | CONC(=O)c1ccc(C#N)cc1Nc1ccc(I)cc1F [Compound 1.007] | GI50 (HCT116 cells): 750 to 2000 nM; GI50 (A375 cells): 500 to 1500 nM

— patent publication US11572344B2, “Cyanoaryl-aniline compounds for treatment of dermal disorders” (NFlection Therapeutics, Inc., priority 2018, dated 2023)
